# Assay results reported in PMC8508960, “Ruthenium Half-Sandwich Type Complexes with Bidentate Monosaccharide Ligands Show Antineoplastic Activity in Ovarian Cancer Cell Models through Reactive Oxygen Species Production” (International Journal of Molecular Sciences, 2021).
# Test: Aqueous stability over time by NMR
# Format: physicochemical
# Settings: aqueous medium, 2 day old equilibrated sample, KCl added
# Text: The aqueous stability of the complexes was also studied over time. The small shifts of signals attributable to the structural change of the complex can be observed; however, by adding KCl to the 2 day old equilibrated sample, the original signals could be recovered.
structure (smiles),measurement,value
Cc1ccc(C(C)C)cc1.F[P-](F)(F)(F)(F)F.OCC1OC(n2cc(-c3ccccn3)nn2)C(O)C(O)C1O.[Cl][Ru+] (mixture of isomers) [Ru-3a],aqueous stability over time (NMR),only the exchange of the coordinating chloride ion by a water molecule occurred in a reversible manner
